Measurements as given in patent publication US12122761B2, “2-azaspiro[3.4]octane derivatives as M4 agonists” (NOVARTIS AG, priority 2019, dated 2024).

Biological target: T1, human cloned CHRM3 receptor (M3_CHO cells) (Homo sapiens, UniProt P20309)
T1 construct: expressed in transfected cells; host or cells: CHO-K1
Test: CHRM3 Ca++ Flux Assay (agonist mode, FDSS 7000EX)
Assay type: cell-based
Details: for Emax: Percent Activity measured to EC100 of Carbachol, read-out: M3 FDSS PA; for EC50: agonist mode, geometric mean if tested more than once, read-out: M3 FDSS EC50
In short: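 CHO-K1 cells stably expressing human M3 or M5 receptor were dye-loaded for at least 1 h in HBSS with 20 mM HEPES and 2.5 mM probenecid, then given 11-point compound doses in triplicate.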

T1 sequence (P20309 whole entry): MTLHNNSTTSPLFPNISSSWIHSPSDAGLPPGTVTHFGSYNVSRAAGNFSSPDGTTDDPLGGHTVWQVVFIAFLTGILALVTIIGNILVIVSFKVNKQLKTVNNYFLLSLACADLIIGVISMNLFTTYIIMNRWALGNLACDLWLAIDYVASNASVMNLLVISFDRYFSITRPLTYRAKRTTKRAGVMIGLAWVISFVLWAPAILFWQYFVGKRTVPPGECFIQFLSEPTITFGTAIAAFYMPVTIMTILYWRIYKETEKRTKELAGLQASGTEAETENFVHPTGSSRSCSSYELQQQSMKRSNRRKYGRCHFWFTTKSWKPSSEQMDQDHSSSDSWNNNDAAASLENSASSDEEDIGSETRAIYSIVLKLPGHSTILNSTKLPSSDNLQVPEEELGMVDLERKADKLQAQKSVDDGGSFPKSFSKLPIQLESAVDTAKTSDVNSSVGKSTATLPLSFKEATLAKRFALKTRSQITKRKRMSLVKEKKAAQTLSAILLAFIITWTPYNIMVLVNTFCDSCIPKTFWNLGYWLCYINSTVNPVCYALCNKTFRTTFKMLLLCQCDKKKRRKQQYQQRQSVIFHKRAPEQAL

For Fc1ccc(C2CCOC2)c(C2CCN([C@@H]3CCC4(C3)CN(c3nnco3)C4)CC2)c1 (mixture of isomers) [Example 2J, 2-((6R)-6-(4-(5-fluoro-2-(tetrahydrofuran-3-yl)phenyl)piperidin-1-yl)-2-azaspiro[3.4]octan-2-yl)-1,3,4-oxadiazole], the Emax was 0% and the EC50 was greater than 25 µM.
O=C(C1COC1)N1CC2(CC[C@H](N3CCC(c4ccccc4OC(F)(F)F)CC3)C2)C1 (single isomer, unassigned) [Example 8G] gave an Emax of 0% and an EC50 greater than 25 µM.
O=C(N1CC2(CC[C@H](N3CCC(c4ccccc4C4CCOCC4)CC3)C2)C1)C1(F)CC1 (single isomer, unassigned) [Example 9M] gave an Emax of 0% and an EC50 greater than 25 µM.
c1ccc(C2CCN([C@H]3CCC4(C3)CN(c3nnco3)C4)CC2)c(C2CCOCC2)c1 (single isomer, unassigned) [Example 10T] showed an Emax of 0% and an EC50 greater than 25 µM.
c1ccc(C2CCN([C@@H]3CCC4(C3)CN(c3nnco3)C4)CC2)c(OC2CC3(COC3)C2)c1 [Example 1A, (R)-2-(6-(4-(2-((2-oxaspiro[3.3]heptan-6-yl)oxy)phenyl)piperidin-1-yl)-2-azaspiro[3.4]octan-2-yl)-1,3,4-oxadiazole] showed an Emax of 0% and an EC50 greater than 25 µM.
Compound c1ccc(C2CCN([C@@H]3CCC4(C3)CN(c3nnco3)C4)CC2)c(OC2COC2)c1 [Example 1D, (R)-2-(6-(4-(2-(oxetan-3-yloxy)phenyl)piperidin-1-yl)-2-azaspiro[3.4]octan-2-yl)-1,3,4-oxadiazole] has an Emax of 0% and an EC50 greater than 25 µM.
In the case of c1ccc(C2CCN([C@@H]3CCC4(C3)CN(c3nnco3)C4)CC2)c(OC[C@@H]2COCCO2)c1 [Example 1E, 2-((R)-6-(4-(2-(((S)-1,4-dioxan-2-yl)methoxy)phenyl)piperidin-1-yl)-2-azaspiro[3.4]octan-2-yl)-1,3,4-oxadiazole], the Emax is reported as 0% and the EC50 is reported as greater than 25 µM.
CC(C)(O)CCOc1ccccc1C1CCN([C@@H]2CCC3(C2)CN(c2nnco2)C3)CC1 [Example 1F] was tested, and the Emax was 0% and the EC50 was greater than 25 µM.
c1ccc(C2CCN([C@@H]3CCC4(C3)CN(c3nncs3)C4)CC2)c(OCC2COC2)c1 [Example 1G, (R)-2-(6-(4-(2-(oxetan-3-ylmethoxy)phenyl)piperidin-1-yl)-2-azaspiro[3.4]octan-2-yl)-1,3,4-thiadiazole] showed an Emax of 0% and an EC50 greater than 25 µM.
In the case of FC1(COc2ccccc2C2CCN([C@@H]3CCC4(C3)CN(c3nncs3)C4)CC2)COC1 [Example 1H, (R)-2-(6-(4-(2-((3-fluorooxetan-3-yl)methoxy)phenyl)piperidin-1-yl)-2-azaspiro[3.4]octan-2-yl)-1,3,4-thiadiazole], the Emax is reported as 0% and the EC50 is reported as greater than 25 µM.
For c1ccc(C2CCN([C@@H]3CCC4(C3)CN(c3nncs3)C4)CC2)c(OCC2CCOCC2)c1 [Example 1I, (R)-2-(6-(4-(2-((tetrahydro-2H-pyran-4-yl)methoxy)phenyl)piperidin-1-yl)-2-azaspiro[3.4]octan-2-yl)-1,3,4-thiadiazole], the Emax was 0% and the EC50 was greater than 25 µM.
Compound FC1(COc2ccccc2C2CCN([C@@H]3CCC4(C3)CN(c3nncs3)C4)CC2)CCOCC1 [Example 1J, (R)-2-(6-(4-(2-((4-fluorotetrahydro-2H-pyran-4-yl)methoxy)phenyl)piperidin-1-yl)-2-azaspiro[3.4]octan-2-yl)-1,3,4-thiadiazole] has an Emax of 0% and an EC50 greater than 25 µM.
For c1ccc(C2CCN([C@@H]3CCC4(C3)CN(c3cncnc3)C4)CC2)c(OC2COC2)c1 [Example 1K, (R)-6-(4-(2-(oxetan-3-yloxy)phenyl)piperidin-1-yl)-2-(pyrimidin-5-yl)-2-azaspiro[3.4]octane], the Emax was 0% and the EC50 was greater than 25 µM.
c1ccc(C2CCN([C@@H]3CCC4(C3)CN(c3cncnc3)C4)CC2)c(OC2CCOCC2)c1 [Example 1L, (R)-2-(pyrimidin-5-yl)-6-(4-(2-((tetrahydro-2H-pyran-4-yl)oxy)phenyl)piperidin-1-yl)-2-azaspiro[3.4]octane] showed an Emax of 0% and an EC50 greater than 25 µM.
c1ccc(C2CCN([C@@H]3CCC4(C3)CN(c3cncnc3)C4)CC2)c(OCC2CCOCC2)c1 [Example 1M, (R)-2-(pyrimidin-5-yl)-6-(4-(2-((tetrahydro-2H-pyran-4-yl)methoxy)phenyl)piperidin-1-yl)-2-azaspiro[3.4]octane] showed an Emax of 0% and an EC50 greater than 25 µM.
c1ccc(C2CCN([C@@H]3CCC4(C3)CN(c3cncnc3)C4)CC2)c(OCC2COC2)c1 [Example 1N, (R)-6-(4-(2-(oxetan-3-ylmethoxy)phenyl)piperidin-1-yl)-2-(pyrimidin-5-yl)-2-azaspiro[3.4]octane] gave an Emax of 0% and an EC50 greater than 25 µM.
With c1ccc(C2CCN([C@@H]3CCC4(C3)CN(c3cncnc3)C4)CC2)c(OC2CC3(COC3)C2)c1 [Example 1O, (R)-6-(4-(2-((2-oxaspiro[3.3]heptan-6-yl)oxy)phenyl)piperidin-1-yl)-2-(pyrimidin-5-yl)-2-azaspiro[3.4]octane] the Emax was 0% and the EC50 was greater than 25 µM.
c1ccc(C2CCN([C@@H]3CCC4(C3)CN(c3cncnc3)C4)CC2)c(O[C@@H]2CCOC2)c1 [Example 1P, (R)-2-(pyrimidin-5-yl)-6-(4-(2-(((R)-tetrahydrofuran-3-yl)oxy)phenyl)piperidin-1-yl)-2-azaspiro[3.4]octane] showed an Emax of 0% and an EC50 greater than 25 µM.
CC(C)(O)COc1ccccc1C1CCN([C@@H]2CCC3(C2)CN(c2nnco2)C3)CC1 [Example 2A, (R)-1-(2-(1-(2-(1,3,4-oxadiazol-2-yl)-2-azaspiro[3.4]octan-6-yl)piperidin-4-yl)phenoxy)-2-methylpropan-2-ol] gave an Emax of 0% and an EC50 greater than 25 µM.
In the case of c1ccc(C2CCN([C@@H]3CCC4(C3)CN(c3nnco3)C4)CC2)c(O[C@@H]2CCOC2)c1 [Example 2B, 2-((R)-6-(4-(2-(((R)-tetrahydrofuran-3-yl)oxy)phenyl)piperidin-1-yl)-2-azaspiro[3.4]octan-2-yl)-1,3,4-oxadiazole], the Emax is reported as 0% and the EC50 is reported as greater than 25 µM.
With COCCOc1ccccc1C1CCN([C@@H]2CCC3(C2)CN(c2nnco2)C3)CC1 [Example 2C] the Emax was 0% and the EC50 was greater than 25 µM.
For FC1(COc2ccccc2C2CCN([C@@H]3CCC4(C3)CN(c3nnco3)C4)CC2)CCOCC1 [Example 2D, (R)-2-(6-(4-(2-((4-fluorotetrahydro-2H-pyran-4-yl)methoxy)phenyl)piperidin-1-yl)-2-azaspiro[3.4]octan-2-yl)-1,3,4-oxadiazole], the Emax was 0% and the EC50 was greater than 25 µM.
In the case of CC1(COc2ccccc2C2CCN([C@@H]3CCC4(C3)CN(c3nnco3)C4)CC2)CCOCC1 [Example 2E, (R)-2-(6-(4-(2-((4-methyltetrahydro-2H-pyran-4-yl)methoxy)phenyl)piperidin-1-yl)-2-azaspiro[3.4]octan-2-yl)-1,3,4-oxadiazole], the Emax is reported as 0% and the EC50 is reported as greater than 25 µM.
With c1ccc(C2CCN([C@@H]3CCC4(C3)CN(c3nnco3)C4)CC2)c(OC2CCOCC2)c1 [Example 2F, (R)-2-(6-(4-(2-((tetrahydro-2H-pyran-4-yl)oxy)phenyl)piperidin-1-yl)-2-azaspiro[3.4]octan-2-yl)-1,3,4-oxadiazole] the Emax was 0% and the EC50 was greater than 25 µM.
